# Measured values taken from patent US20260241046A1, “PROSTATE-SPECIFIC MEMBRANE ANTIGEN RECEPTOR-TARGETING RADIOPHARMACEUTICALS AND USES THEREOF” (Nuclidium AG, priority 2024, published 2026).
# “Also recorded” adds a separate entry of the source.
# Assays:
# [1] = test system: LNCaP xenografted mice; assay: PET/CT imaging in mice; format: in vivo
# Method: Unless otherwise specified, the in vivo studies were performed on athymic nude Foxn1^nu 4-6-week-old mice. Animals were injected in the shoulder with LNCaP cells (10^7 cells/200 μL) suspended in 1:1 (v: v) EMEM EBS medium and Matrigel. The in vivo experiments were performed when tumors reached a volume between 100-500 mm^3. At the intervention, all mice were between 7 and 11 weeks old. All animal experiments were performed following the guidelines for the use of living animals in scientific studies and the Swiss regulations for the protection of animals.
# LNCap xenografted mice were injected i.v. into the tail vein with 4-8 MBq (400 pmol) of [^61Cu]Cu-NODAGA-PSMA I&T diluted in 100 μL saline solution. Dynamic PET scans were acquired for 1 hour upon injection of the radiotracer. The mice were euthanized using carbon dioxide at 4 hours post-injection, the bladder was mechanically emptied, and static PET scans were acquired for 30 min. PET images were obtained using the β-CUBE PET scanner system (MOLECUBES, Gent, Belgium) and were decay corrected and reconstructed with the VivoQuant software version 4.0. Tomograms and helical CT scans of the whole mouse were first acquired using a NanoSPECT/CTTM scanner (Bioscan Inc.). CT images were reconstructed using CTReco (version r1.146), resulting in a pixel size of 0.2 mm. […]
# [2] = biological target: T1, PSMA-expressing tumors (Homo sapiens, UniProt Q04609); assay: First-in-human PET/CT study; format: in vivo; details: 104 MBq i.v., imaging at 3 hours, patient with metastatic prostate cancer
# T1 construct: administered intravenously to a patient with known metastatic prostate cancer; from tissue; host or cells: osseous and hepatic metastases of a patient with metastatic prostate cancer
# Method: A [^61Cu]Cu-NODAGA-PSMA I&T dose of 104 MBq (2.81 mCi) was administered intravenously to a patient with known metastatic prostate cancer. The patient was co-injected with 10 mg furosemide (Lasix®, Sanofi-Aventis, Frankfurt, Germany).
# Imaging was performed at 3 hours following radiotracer administration on a Biograph Vision 600 (Siemens, Germany) PET/CT scanner. Images were obtained from the skull to mid-thigh and reconstructed into multiplanar PT, CT, and fused PET/CT images. CT was used for attenuation correction.
# T1 sequence (Q04609 whole entry): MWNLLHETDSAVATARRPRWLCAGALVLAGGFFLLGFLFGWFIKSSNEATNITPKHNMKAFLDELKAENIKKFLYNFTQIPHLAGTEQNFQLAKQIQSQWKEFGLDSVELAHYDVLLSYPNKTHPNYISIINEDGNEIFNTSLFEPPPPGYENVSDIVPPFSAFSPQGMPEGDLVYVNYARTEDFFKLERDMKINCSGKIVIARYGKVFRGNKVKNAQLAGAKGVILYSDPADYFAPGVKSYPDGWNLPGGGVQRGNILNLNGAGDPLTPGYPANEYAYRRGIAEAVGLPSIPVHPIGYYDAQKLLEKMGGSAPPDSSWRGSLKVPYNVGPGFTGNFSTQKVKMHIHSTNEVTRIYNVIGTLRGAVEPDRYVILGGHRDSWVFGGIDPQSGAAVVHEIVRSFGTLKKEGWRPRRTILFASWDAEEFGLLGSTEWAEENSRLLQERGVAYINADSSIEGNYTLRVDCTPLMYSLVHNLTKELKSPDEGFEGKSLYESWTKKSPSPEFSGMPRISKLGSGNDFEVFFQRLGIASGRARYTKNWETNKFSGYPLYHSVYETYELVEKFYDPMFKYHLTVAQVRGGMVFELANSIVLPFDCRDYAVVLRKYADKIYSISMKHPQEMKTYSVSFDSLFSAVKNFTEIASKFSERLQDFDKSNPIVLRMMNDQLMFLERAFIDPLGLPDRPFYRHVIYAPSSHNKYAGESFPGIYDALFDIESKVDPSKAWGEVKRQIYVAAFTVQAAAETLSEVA
smiles,measurement,setting,value
O=C([O-])CN1CCN(CC(=O)[O-])CCN([C@H](CCC(=O)N[C@H](Cc2ccc(O)c(I)c2)C(=O)N[C@H](Cc2ccccc2)C(=O)N[C@H](CCCCNC(=O)CCCCCCC(=O)NCCCC[C@H](NC(=O)N[C@@H](CCC(=O)O)C(=O)O)C(=O)O)C(=O)O)C(=O)O)CC1.[61Cu+2] [[^61Cu]Cu-NODAGA-PSMA I&T],time of maximum accumulation in the tumor,[1],1 hour post-injection
same,time of optimal tumor-to-background signal ratio,[1],4 hours post-injection
same,radiotracer accumulation on PET/CT,[2],multifocal osseous (arrows) and hepatic (arrowheads) metastases; also recorded: Radiotracer accumulation was noted in multifocal osseous and hepatic metastases
